Test results published in the NIST ThermoML archive (doi:10.1021/acs.jced.8b00008).
Numbers after ± are expanded uncertainties.

Test: xn = mol fraction of the nth substance listed
Details: 102 kPa, Liquid; for mass density: Vibrating tube method; for viscosity: Concentric cylinders viscometry; for speed of sound: Single path-length method

CCCCCCCCCCCCCCCC [hexadecane] + CC1CCCCC1
mass density (303.15 K, x2 = 0.4999): 764.21 ± 0.32 kg/m3 | mass density (303.15 K, x2 = 0.6): 763.6 ± 0.32 kg/m3 | mass density (303.15 K, x2 = 0.7): 762.96 ± 0.32 kg/m3 | mass density (303.15 K, x2 = 0.8): 762.24 ± 0.32 kg/m3 | mass density (303.15 K, x2 = 0.9): 761.47 ± 0.32 kg/m3 | viscosity (313.15 K, x2 = 0.1018): 2.06 ± 0.01 mPa·s | viscosity (313.15 K, x2 = 0.2): 1.89 ± 0.01 mPa·s | viscosity (313.15 K, x2 = 0.3): 1.72 ± 0.01 mPa·s | viscosity (313.15 K, x2 = 0.4004): 1.55 ± 0.01 mPa·s | viscosity (313.15 K, x2 = 0.4999): 1.38 ± 0.01 mPa·s | viscosity (313.15 K, x2 = 0.6): 1.2 ± 0.01 mPa·s | viscosity (313.15 K, x2 = 0.7): 1.03 ± 0.01 mPa·s | viscosity (313.15 K, x2 = 0.8): 0.906 ± 0.012 mPa·s | viscosity (313.15 K, x2 = 0.9): 0.739 ± 0.012 mPa·s | speed of sound (313.15 K, x2 = 0.1018): 1275.9 ± 0.5 m/s | speed of sound (313.15 K, x2 = 0.2): 1269.1 ± 0.5 m/s | speed of sound (313.15 K, x2 = 0.3): 1259.4 ± 0.5 m/s | speed of sound (313.15 K, x2 = 0.4004): 1250.2 ± 0.6 m/s | speed of sound (313.15 K, x2 = 0.4999): 1240.7 ± 0.5 m/s | speed of sound (313.15 K, x2 = 0.6): 1226.9 ± 0.5 m/s | speed of sound (313.15 K, x2 = 0.7): 1212.1 ± 0.5 m/s | speed of sound (313.15 K, x2 = 0.8): 1194.1 ± 0.5 m/s | speed of sound (313.15 K, x2 = 0.9): 1174.1 ± 0.5 m/s | mass density (313.15 K, x2 = 0.1018): 759.08 ± 0.32 kg/m3 | mass density (313.15 K, x2 = 0.2): 758.66 ± 0.32 kg/m3 | mass density (313.15 K, x2 = 0.3): 758.08 ± 0.32 kg/m3 | mass density (313.15 K, x2 = 0.4004): 757.54 ± 0.32 kg/m3 | mass density (313.15 K, x2 = 0.4999): 756.95 ± 0.32 kg/m3 | mass density (313.15 K, x2 = 0.6): 756.18 ± 0.32 kg/m3 | mass density (313.15 K, x2 = 0.7): 755.37 ± 0.32 kg/m3 | mass density (313.15 K, x2 = 0.8): 754.38 ± 0.32 kg/m3 | mass density (313.15 K, x2 = 0.9): 753.24 ± 0.32 kg/m3 | viscosity (323.15 K, x2 = 0.1018): 1.72 ± 0.01 mPa·s | viscosity (323.15 K, x2 = 0.2): 1.58 ± 0.01 mPa·s | viscosity (323.15 K, x2 = 0.3): 1.45 ± 0.01 mPa·s | viscosity (323.15 K, x2 = 0.4004): 1.31 ± 0.01 mPa·s | viscosity (323.15 K, x2 = 0.4999): 1.2 ± 0.01 mPa·s | viscosity (323.15 K, x2 = 0.6): 1.05 ± 0.01 mPa·s | viscosity (323.15 K, x2 = 0.7): 0.91 ± 0.012 mPa·s | viscosity (323.15 K, x2 = 0.8): 0.768 ± 0.012 mPa·s | viscosity (323.15 K, x2 = 0.9): 0.629 ± 0.011 mPa·s | speed of sound (323.15 K, x2 = 0.1018): 1239.9 ± 0.5 m/s | speed of sound (323.15 K, x2 = 0.2): 1233 ± 0.5 m/s | speed of sound (323.15 K, x2 = 0.3): 1223 ± 0.5 m/s | speed of sound (323.15 K, x2 = 0.4004): 1213.5 ± 0.7 m/s | speed of sound (323.15 K, x2 = 0.4999): 1203.7 ± 0.5 m/s | speed of sound (323.15 K, x2 = 0.6): 1189.3 ± 0.5 m/s | speed of sound (323.15 K, x2 = 0.7): 1173.8 ± 0.5 m/s | speed of sound (323.15 K, x2 = 0.8): 1154.9 ± 0.5 m/s | speed of sound (323.15 K, x2 = 0.9): 1133.7 ± 0.5 m/s | mass density (323.15 K, x2 = 0.1018): 752.12 ± 0.32 kg/m3 | mass density (323.15 K, x2 = 0.2): 751.64 ± 0.32 kg/m3 | mass density (323.15 K, x2 = 0.3): 751 ± 0.32 kg/m3 | mass density (323.15 K, x2 = 0.4004): 750.36 ± 0.32 kg/m3 | mass density (323.15 K, x2 = 0.4999): 749.66 ± 0.32 kg/m3 | mass density (323.15 K, x2 = 0.6): 748.73 ± 0.32 kg/m3 | mass density (323.15 K, x2 = 0.7): 747.73 ± 0.32 kg/m3 | mass density (323.15 K, x2 = 0.8): 746.47 ± 0.32 kg/m3 | mass density (323.15 K, x2 = 0.9): 744.96 ± 0.32 kg/m3 | viscosity (333.15 K, x2 = 0.1018): 1.46 ± 0.01 mPa·s | viscosity (333.15 K, x2 = 0.2): 1.35 ± 0.01 mPa·s | viscosity (333.15 K, x2 = 0.3): 1.24 ± 0.01 mPa·s | viscosity (333.15 K, x2 = 0.4004): 1.16 ± 0.01 mPa·s | viscosity (333.15 K, x2 = 0.4999): 1.04 ± 0.01 mPa·s | viscosity (333.15 K, x2 = 0.6): 0.924 ± 0.012 mPa·s | viscosity (333.15 K, x2 = 0.7): 0.801 ± 0.012 mPa·s | viscosity (333.15 K, x2 = 0.8): 0.68 ± 0.011 mPa·s | viscosity (333.15 K, x2 = 0.9): 0.558 ± 0.011 mPa·s | speed of sound (333.15 K, x2 = 0.1018): 1204.9 ± 0.5 m/s | speed of sound (333.15 K, x2 = 0.2): 1197.7 ± 0.5 m/s | speed of sound (333.15 K, x2 = 0.3): 1187.7 ± 0.5 m/s | speed of sound (333.15 K, x2 = 0.4004): 1177.8 ± 0.5 m/s | speed of sound (333.15 K, x2 = 0.4999): 1167.2 ± 0.5 m/s | speed of sound (333.15 K, x2 = 0.6): 1152.3 ± 0.5 m/s | speed of sound (333.15 K, x2 = 0.7): 1136 ± 0.5 m/s | speed of sound (333.15 K, x2 = 0.8): 1116.2 ± 0.5 m/s | speed of sound (333.15 K, x2 = 0.9): 1094.2 ± 0.8 m/s | mass density (333.15 K, x2 = 0.1018): 745.15 ± 0.32 kg/m3 | mass density (333.15 K, x2 = 0.2): 744.61 ± 0.32 kg/m3 | mass density (333.15 K, x2 = 0.3): 743.89 ± 0.32 kg/m3 | mass density (333.15 K, x2 = 0.4004): 743.16 ± 0.32 kg/m3 | mass density (333.15 K, x2 = 0.4999): 742.34 ± 0.32 kg/m3 | mass density (333.15 K, x2 = 0.6): 741.25 ± 0.32 kg/m3 | mass density (333.15 K, x2 = 0.7): 740.03 ± 0.32 kg/m3 | mass density (333.15 K, x2 = 0.8): 738.5 ± 0.32 kg/m3 | mass density (333.15 K, x2 = 0.9): 736.61 ± 0.32 kg/m3
